Assay results as given in patent US10173968B2, “Bishydrazone-based antifungal agents” (University of Kentucky Research Foundation, priority 2016, dated 2019).
Like-named read-outs stand apart in the source and are kept apart here.

Tests used:
C. albicans ATCC 10231 = assay: Antifungal MIC, CLSI M27-A3 microbroth dilution; assay type: cell-based, Candida albicans; conditions: C. albicans ATCC 10231, resistant to FLC, ITC, and VOR
Method: (§1) In vitro MIC testing was performed according to the CLSI M27-A3 standard microbroth dilution methodology for the susceptibility testing of yeasts with minor modifications.

C. albicans ATCC 1003 = assay: Antifungal MIC, CLSI M27-A3 microbroth dilution; assay type: cell-based, Candida albicans
Method: as §1

C. albicans ATCC 90819 = assay: Antifungal MIC, CLSI M27-A3 microbroth dilution; assay type: cell-based, Candida albicans; conditions: C. albicans ATCC 90819, resistant to FLC, ITC, and VOR
Method: as §1

C. albicans ATCC 2310 = assay: Antifungal MIC, CLSI M27-A3 microbroth dilution; assay type: cell-based, Candida albicans; conditions: C. albicans ATCC 2310, susceptible to FLC, ITC, and VOR
Method: as §1

C. albicans ATCC 64124 = assay: Antifungal MIC, CLSI M27-A3 microbroth dilution; assay type: cell-based, Candida albicans; conditions: C. albicans ATCC 64124, resistant to FLC, ITC, and VOR
Method: as §1

C. albicans ATCC 2876 = assay: Antifungal MIC, CLSI M27-A3 microbroth dilution; assay type: cell-based, Candida albicans; conditions: C. albicans ATCC 2876, susceptible to FLC, ITC, and VOR
Method: as §1

C. albicans ATCC 1237 = assay: Antifungal MIC, CLSI M27-A3 microbroth dilution; assay type: cell-based, Candida albicans; conditions: ITC, and VOR
Method: as §1

P. aeruginosa ATCC 27853 = assay: Antibacterial MIC, double-dilution method; assay type: cell-based; conditions: Pseudomonas aeruginosa, ATCC27853, strain I, Gram-negative, read-out: MIC
Method: (§2) MIC values were determined against a variety of Gram-positive (strains A-D) and Gram-negative (E-J) bacterial and mycobacterial (K) strains using the double-dilution method, as previously published. Preliminary screening was performed using 500 μM of each compound.

MRSA = assay: Antibacterial MIC, double-dilution method; assay type: cell-based; conditions: Staphylococcus aureus, strain C, Gram-positive, read-out: MIC
Method: as §2

E. coli MC1061 = assay: Antibacterial MIC, double-dilution method; assay type: cell-based; conditions: Escherichia coli, strain G, Gram-negative, read-out: MIC
Method: as §2

K. pneumoniae ATCC 27736 = assay: Antibacterial MIC, double-dilution method; assay type: cell-based; conditions: Klebsiella pneumoniae, ATCC27736, strain H, Gram-negative, read-out: MIC
Method: as §2

VRE = assay: Antibacterial MIC, double-dilution method; assay type: cell-based; conditions: Enterococcus, strain D, Gram-positive, read-out: MIC
Method: as §2

S. enterica ATCC 14028 = assay: Antibacterial MIC, double-dilution method; assay type: cell-based; conditions: Salmonella enterica, ATCC14028, strain J, Gram-negative, read-out: MIC
Method: as §2

B. subtilis 168 = assay: Antibacterial MIC, double-dilution method; assay type: cell-based; conditions: Bacillus subtilis, strain A, Gram-positive
Method: as §2

A. baumannii ATCC 19606 = assay: Antibacterial MIC, double-dilution method; assay type: cell-based; conditions: Acinetobacter baumannii, ATCC19606, strain E, Gram-negative, read-out: MIC
Method: as §2

M. smegmatis MC2-155 = assay: Antibacterial MIC, double-dilution method; assay type: cell-based; conditions: mycobacterial
Method: as §2

[1] = tested on: L. monocytogenes ATCC 19115; assay: Antibacterial MIC, double-dilution method; assay type: cell-based; conditions: Listeria monocytogenes, ATCC19115, strain B, Gram-positive, read-out: MIC
Method: as §2

E. cloacae ATCC 13047 = assay: Antibacterial MIC, double-dilution method; assay type: cell-based; conditions: Enterobacter cloacae, ATCC13047, strain F, Gram-negative, read-out: MIC
Method: as §2

[2] = Candida albicans, ATCC10231, converted from μg/mL, read-out: MIC
[3] = Candida albicans, ATCC10231, read-out: MIC
[4] = Candida albicans, ATCC1003, C. albicans ATCC 1003, converted from μg/mL, read-out: MIC
[5] = Candida albicans, ATCC1003, read-out: MIC
[6] = Candida albicans, ATCC90819, converted from μg/mL, read-out: MIC
[7] = Candida albicans, ATCC90819, read-out: MIC
[8] = Candida albicans, ATCC2310, converted from μg/mL, read-out: MIC
[9] = Candida albicans, ATCC2310, read-out: MIC
[10] = Candida albicans, ATCC64124, converted from μg/mL, read-out: MIC
[11] = Candida albicans, ATCC64124, read-out: MIC
[12] = Candida albicans, ATCC2876, converted from μg/mL, read-out: MIC
[13] = Candida albicans, ATCC2876, read-out: MIC
[14] = Candida albicans, ATCC1237, C. albicans ATCC 1237, resistant to FLC, converted from μg/mL, read-out: MIC
[15] = Candida albicans, ATCC1237, C. albicans ATCC 1237, resistant to FLC, read-out: MIC
[16] = Mycolicibacterium smegmatis, MC2155, strain K, converted from μM, read-out: MIC

In the case of `C/C(=N\NC(=N)N)c1cccc(/C(C)=N/NC(=N)N)c1.Cl.Cl` [Compound 4H, (2E,2′E)-2,2′-(1,3-Phenylenebis(ethan-1-yl-1-ylidene))bis(hydrazine-1-carboximidamide) dihydrochloride], the MIC (C. albicans ATCC 10231; [2]) is reported as over 90.1 µM, the MIC (C. albicans ATCC 10231; [3]) is reported as over 31.3 µg/mL and the MIC (C. albicans ATCC 1003; [4]) is reported as over 90.1 µM. For the same compound, the MIC (C. albicans ATCC 1003; [5]) was over 31.3 µg/mL, the MIC (C. albicans ATCC 90819; [6]) was over 90.1 µM and the MIC (C. albicans ATCC 90819; [7]) was over 31.3 µg/mL. It also gave an MIC (C. albicans ATCC 2310; [8]) of 90.1 µM, an MIC (C. albicans ATCC 2310; [9]) of 31.3 µg/mL and an MIC (C. albicans ATCC 64124; [10]) of over 90.1 µM. The MIC (C. albicans ATCC 64124; [11]) was over 31.3 µg/mL, the MIC (C. albicans ATCC 2876; [12]) was 22.5 µM and the MIC (C. albicans ATCC 2876; [13]) was 7.8 µg/mL. For the same compound, the MIC (C. albicans ATCC 1237; [14]) was 90.1 µM, the MIC (C. albicans ATCC 1237; [15]) was 31.3 µg/mL and the MIC (P. aeruginosa ATCC 27853; converted from μM) was 173 µg/mL. It also gave an MIC (P. aeruginosa ATCC 27853; range 0.5 to 500 μM) of 500 µM, an MIC (MRSA; converted from μM) of over 173 µg/mL and an MIC (MRSA; range 0.5 to 500 μM) of over 500 µM. The MIC (E. coli MC1061; converted from μM) was over 173 µg/mL, the MIC (E. coli MC1061; range 0.5 to 500 μM) was over 500 µM and the MIC (K. pneumoniae ATCC 27736; converted from μM) was over 173 µg/mL. For the same compound, the MIC (K. pneumoniae ATCC 27736; range 0.5 to 500 μM) was over 500 µM, the MIC (VRE; converted from μM) was 43.4 µg/mL and the MIC (VRE; range 0.5 to 500 μM) was 125 µM. For the same compound, the MIC (S. enterica ATCC 14028; converted from μM) was 21.7 to 86.8 µg/mL, the MIC (S. enterica ATCC 14028; range 0.5 to 500 μM) was 62.5 to 250 µM and the MIC (B. subtilis 168; converted from μM) was 86.8 µg/mL. The MIC (B. subtilis 168; range 0.5 to 500 μM) was 250 µM, the MIC (A. baumannii ATCC 19606; converted from μM) was over 173 µg/mL and the MIC (A. baumannii ATCC 19606; range 0.5 to 500 μM) was over 500 µM. For the same compound, the MIC (M. smegmatis MC2-155; [16]) was 5.4 µg/mL, the MIC (M. smegmatis MC2-155; Mycolicibacterium smegmatis, MC2155, strain K, range 0.5 to 500 μM) was 15.6 to 31.3 µM and the MIC (M. smegmatis MC2-155; strain K, range 0.5 to 500 μM, dihydrochloride) was “(15.6) μM”. The MIC ([1]; converted from μM) was 86.8 µg/mL, the MIC ([1]; range 0.5 to 500 μM) was 250 µM and the MIC (E. cloacae ATCC 13047; converted from μM) was over 173 µg/mL. For the same compound, the MIC (E. cloacae ATCC 13047; range 0.5 to 500 μM) was over 500 µM.

`C[C@@H]1[C@H](O)[C@@H](C)/C=C/C=C/C=C/C=C/C=C/C=C/C=C/[C@H](O[C@@H]2O[C@H](C)[C@@H](O)[C@H](N)[C@@H]2O)C[C@@H]2O[C@](O)(C[C@@H](O)C[C@@H](O)[C@H](O)CC[C@@H](O)C[C@@H](O)CC(=O)O[C@H]1C)C[C@H](O)[C@H]2C(=O)O` [AmB, amphotericin B, reference compound] was tested, and the MIC (C. albicans ATCC 10231) was 3.9 µg/mL, the MIC (C. albicans ATCC 10231; converted from μg/mL) was “(4.2) μM” and the MIC (C. albicans ATCC 1003; C. albicans ATCC 1003, converted from μg/mL) was “(4.2) μM”. For the same compound, the MIC (C. albicans ATCC 1003; C. albicans ATCC 1003, range 0.5 to […]) was 3.9 µg/mL, the MIC (C. albicans ATCC 90819) was 2.0 µg/mL and the MIC (C. albicans ATCC 90819; converted from μg/mL) was “(2.1) μM”. The MIC (C. albicans ATCC 2310) was 3.9 µg/mL, the MIC (C. albicans ATCC 2310; converted from μg/mL) was “(4.2) μM” and the MIC (C. albicans ATCC 64124) was 2.0 to 3.9 µg/mL. The MIC (C. albicans ATCC 64124; converted from μg/mL) was “(2.1-4.2) μM”, the MIC (C. albicans ATCC 2876) was 3.9 µg/mL and the MIC (C. albicans ATCC 2876; converted from μg/mL) was “(4.2) μM”. For the same compound, the MIC (C. albicans ATCC 1237; C. albicans ATCC 1237, resistant to FLC) was 3.9 µg/mL and the MIC (C. albicans ATCC 1237; C. albicans ATCC 1237, resistant to FLC, converted from μg/mL) was “(4.2) μM”.

For `C/C(=N\NC(=N)N)c1ccc(Oc2ccc(/C(C)=N/NC(=N)N)cc2)cc1.Cl.Cl` [Compound 4E, (2E,2′E)-2,2′-((Oxybis(4,1-phenylene))bis(ethan-1-yl-1-ylidene))bis(hydrazine-1 carboximidamide), dihydrochloride], the MIC (C. albicans ATCC 10231; [2]) was 17.8 µM, the MIC (C. albicans ATCC 10231; [3]) was 7.8 µg/mL and the MIC (C. albicans ATCC 1003; [4]) was 17.8 µM. For the same compound, the MIC (C. albicans ATCC 1003; [5]) was 7.8 µg/mL, the MIC (C. albicans ATCC 90819; [6]) was 17.8 µM and the MIC (C. albicans ATCC 90819; [7]) was 7.8 µg/mL. It also gave an MIC (C. albicans ATCC 2310; [8]) of 17.8 µM, an MIC (C. albicans ATCC 2310; [9]) of 7.8 µg/mL and an MIC (C. albicans ATCC 64124; [10]) of 17.8 µM. The MIC (C. albicans ATCC 64124; [11]) was 7.8 µg/mL, the MIC (C. albicans ATCC 2876; [12]) was 8.9 µM and the MIC (C. albicans ATCC 2876; [13]) was 3.9 µg/mL. It also gave an MIC (C. albicans ATCC 1237; [14]) of 17.8 µM, an MIC (C. albicans ATCC 1237; [15]) of 7.8 µg/mL and an MIC (P. aeruginosa ATCC 27853; converted from μM) of 27.5 µg/mL. It also gave an MIC (P. aeruginosa ATCC 27853; range 0.5 to 500 μM) of 62.5 µM, an MIC (E. coli MC1061; converted from μM) of 54.9 µg/mL and an MIC (E. coli MC1061; range 0.5 to 500 μM) of 125 µM. It also gave an MIC (K. pneumoniae ATCC 27736; converted from μM) of 27.5 µg/mL, an MIC (K. pneumoniae ATCC 27736; range 0.5 to 500 μM) of 62.5 µM and an MIC (VRE; converted from μM) of 1.7 µg/mL. The MIC (VRE; range 0.5 to 500 μM) was 3.9 µM, the MIC (A. baumannii ATCC 19606; converted from μM) was 27.5 µg/mL and the MIC (A. baumannii ATCC 19606; range 0.5 to 500 μM) was 62.5 µM. The MIC (M. smegmatis MC2-155; [16]) was 54.9 to 110 µg/mL, the MIC (M. smegmatis MC2-155; Mycolicibacterium smegmatis, MC2155, strain K, range 0.5 to 500 μM, read-out: MIC) was 125 to 250 µM and the MIC ([1]; converted from μM) was 27.5 µg/mL. For the same compound, the MIC ([1]; range 0.5 to 500 μM) was 62.5 µM, the MIC (E. cloacae ATCC 13047; converted from μM) was 110 µg/mL and the MIC (E. cloacae ATCC 13047; range 0.5 to 500 μM) was 250 µM.
